In patent US20260166182A1, “CYANINE-BASED FLUOROPHORES” (The General Hospital Corporation, priority 2022, published 2026):
“Also recorded” adds a separate entry of the source.

Assays:
[1] = tested on: serum proteins, mostly albumin; settings: cited from earlier work
[2] = tested on: immune cells from bone marrow and tumor tissues; experiment: Flow cytometry analysis of fluorophore-targeted immune cells from bone marrow and tumor; format: in vivo, mouse; settings: 48 h post-injection
Protocol: Flow cytometry analysis: Bone marrow tissue was mechanically dissociated and digested with collagenase D (175 unit/mL, Roche) and DNase I (100 unit/mL, Roche) followed by EDTA (2 mM, Invitrogen). Erythrocytes were removed using RBC Lysis Buffer (Invitrogen). Tumor tissue was mechanically dissociated and digested with collagenase I (175 unit/mL, Thermo-fisher), Collagenase IV (250 unit/mL, Thermo-fisher, 1700019), and DNase I (100 unit/mL) followed by EDTA ([…]). Immune cells were isolated from cell suspensions of the bone marrow or tumor tissue using Ficoll® Paque Plus (GE Healthcare). Isolated cells were stained with anti-mouse F4/80 (BM8, Biolegend, 123131), anti-mouse Ly-6G (1A8, Biolegend, 127639), anti-mouse Ly-6C(HK1.4, Biolegend, 128011), anti-mouse CD11c (N418, Biolegend, 117313), anti-mouse CD103 (2E7, Biolegend, 121425), anti-mouse I-A/I-E (M5/114.15.2 Biolegend, 107611), anti-mouse/human CD11b (M1/70, Biolegend, 101254) and anti-mouse CD45 antibodies (30-F11, Biolegend, 103105) conjugated to fluorophores. Isolated cells were stained with Live/dead®-Aqua (Life Technologies) to distinguish live cells. Stained cells were fixed using 1% paraformaldehyde prior to analysis. Data acquisition was performed on a Fortessa cytometer (BD) followed by analysis on FlowJo software (Tree Star).

[3] = tested on: lung carcinoma (LLC cell line); experiment: NIR-II fluorescence imaging of subcutaneous LLC tumor-bearing C57BL/6 mice; format: in vivo, mouse; settings: for tumor targeting / tumor signal: intravenous, NIR-II imaging until 48 h post-injection
Excerpt: General NIR-II fluorescence imaging: A 640×512-pixel InGaAs camera (Ninox640, Raptor Photonics) and macro zoom lens (0-10×; Navitar Zoom 7000 with SWIR coating) along with 900, 1070, 1100, and 1200 nm long-pass (LP) filters from either Thorlab or Edmund optics were used to collect the NIR-II signal. InGaAs camera played a role as an open-air imaging system along with the support of the FLARE system. An 808 nm fiber-coupled diode laser ([…] at the sample) was used as an excitation source. Data acquisition was done using in-house developed software. […] Mice were imaged with intact skin using InGaAs camera. At least 3 mice were analyzed for each sample. Tumor-bearing mouse models: Animals were housed in an AAALAC-certified facility and were studied under the protocols approved by the MGH IACUC (2016N000136). Mice were maintained under anesthesia with isoflurane and oxygen during the experiment. To establish the various tumor-bearing mouse models including lung carcinoma, pancreatic ductal adenocarcinoma (PDAC), and triple negative breast adenocarcinoma, eight-week-old C57BL/6 mice (Taconic Farms, Germantown, NY) were subcutaneously injected with 2×10^5 LLC, Pan02, and E0771 cells suspended in DMEM/Matrigel (100 μL, 50 v/v %) in the flank region, respectively. Female C57BL/6 mice were used for the breast cancer (E0771) model, otherwise male mice were used. […] Statistical analysis: The fluorescence and background intensities of a region of interest over each tissue were quantified using customized imaging software and ImageJ v1.48 (National Institutes of Health, Bethesda, MD). The signal-to-background ratio (SBR) was calculated as SBR=fluorescence/background, where background was the fluorescence intensity of muscle. Data were reported as mean±s.e.m. with a minimum of three biological replicates. Student's t-test statistical analysis was performed to evaluate the significance of the experimental data. The differences among groups were determined using one-way ANOVA analysis to assess the statistical differences among more than two groups. […] The data was indicated with *p<0.05, ** p<0.01, *** p<0.001, and **** p<0.0001.

LLC tumor = experiment: Tumor histopathology with NIR fluorescence microscopy of resected LLC tumors; format: in vivo, mouse; settings: histological NIR images
Protocol: Tumor histopathology evaluation: […] After rinsing with PBS, the fixed sections were counterstained with nuclear fast red, dehydrated by ethanol, transferred into xylene, and finally mounted according to the standard protocol. To determine the tissue distribution of the NIR fluorophore, the dissected tissues were embedded in Tissue-Tek optimum cutting temperature compound (Sakura Finetek, Torrance, CA) without a pre-fixation step. The tissue block was frozen at −80° C. Frozen sections were cut at a thickness of 10 or 50 μm by a cryostat (Leica, Germany). Then, the tissue sections were stained with hematoxylin and eosin (H&E). The BioTek Cytation 5 (Winooski, VT) was used for pathological fluorescence imaging and observation.

[4] = tested on: serum proteins, mostly albumin; experiment: Serum protein binding kinetics (size exclusion column); format: in vitro ADME; settings: until 24 h incubation
Protocol: FIG. 15 Reaction kinetics of SH1, ICG, and IR-780 to serum proteins, mostly albumin. 50 nmol of each dye was mixed with 1 ml of FBS/PBS (pH 7.4) 50/50 v/v %, incubated at 37° C., and analyzed using a BioResolve size exclusion column (200 Å, 2.5 μm, 7.8×300 mm). The binding percentage was calculated by dividing by absorbance of bound dye at 24 h assuming the dyes can bind in maximum capacity in the protein at 24 h.

[5] = Photostability under xenon lamp irradiation; format: physicochemical; settings: ethanol, xenon lamp 150 W, end of 2 h
Protocol: Optical Study, Photostability, Physicochemical Properties, and DFT Calculation: 1 mM stock solution in DMSO of the synthesized fluorophores was prepared before starting any spectral measurement. Optical properties for the synthesized fluorophores were measured in four different solvents (EtOH, DMSO, HEPES, and PBS). Absorbance spectra were measured in a Varian Cary 50 absorbance spectrophotometer (190-1100 nm). Fluorescence emission and photostability were measured and emission spectra were recorded on a Shimadzu RF-5301PC spectrofluorometer. Physicochemical properties (Log D, molecular mass, TPSA, H bond D/A, polarizability, molecular volume, and rotatable bonds) were predicted by ChemAxon (JChem plugin). Theoretical calculations of frontier molecular orbitals (FMOs) for the optimized structures of selected fluorophores were calculated based on DFT calculations at the B3LYP/6-311G(d,p) level.
In consideration of theranostic (therapeutics and diagnostic) applications, NIR cyanine fluorophores are synthesized for fluorescence imaging, photodynamic therapy (PDT), photothermal therapy (PTT), optoacoustic imaging, and cancer immunotherapy. One of the approaches before using these fluorophores in those applications is to study their biodistribution and clearance pattern in vivo. […] The power density of 150 W is much higher than the required power for fluorescence imaging, considering that the time it takes for a fluorophore to clear from the background and accumulate in sufficient quantities in the targeted tissues is unknown. […] By considering this, an aliquot of the stock solution (1 mM in DMSO) was diluted in ethanol, and the fluorescence intensity was measured at the excitation wavelength same as their absorption maxima (nm). Photodegradation rates were measured every 20 min intervals for the selected fluorophores based on the % reduced fluorescence intensity starting from 100%. […] The data were collected in every 20 min intervals under continuous irradiation with a xenon lamp at 150 W for 2 h and presented based on the % reduced fluorescence intensity starting from 100%. […]

[6] = cited from earlier work

| SMILES | time to bind half of the maximum [1] [min] | positively stained cells across distinct immune cell populations ([2]; bone marrow) [%] | positively stained cells across distinct immune cell populations ([2]; tumor) [%] | nonspecific background signal in biodistribution ([3]; 4 h post-injection) | circulation in the blood stream ([3]; 48 h post-injection) | tumor signal intensity after skin removal ([3]; 48 h post-injection) | tumor targeting / tumor signal [3] | fluorescence signal location in resected tumor (LLC tumor) | reaction with serum proteins [4] | photodegradation (% reduced fluorescence intensity) [5] [%] | reference quantum yield ΦICG [6] | clearance ([3]; mouse, in vivo) |
| --- | --- | --- | --- | --- | --- | --- | --- | --- | --- | --- | --- | --- |
| CCCN1/C(=C/C=C2\CCCC(/C=C/C3=[N+](CCC)c4ccccc4C3(C)C)=C2Cl)C(C)(C)c2ccccc21.[I-] [IR-780] | ~2 | < 22 | < 7 | High nonspecific background signal | strong signals in the blood plasma; also recorded: circulating in the blood stream | significantly decreased after skin removal | accumulating in tumors at early time points around 4 h post-injection | only present in the peritumoral region |  |  |  |  |
| CC1(C)C(/C=C/C=C/C=C/C=C2\N(CCCCS(=O)(=O)O)c3ccc4ccccc4c3C2(C)C)=[N+](CCCCS(=O)(=O)[O-])c2ccc3ccccc3c21 [ICG, indocyanine green, reference compound] |  | < 8 | < 14 |  |  |  | did not show good tumor targeting | barely present in the tumor | did not show any reactions with proteins until 24 h incubation | 41 | 0.043 | fast hepatobiliary clearance |
